From US10077288B2, “Hydroxystatin derivatives for the treatment of arthrosis” (Merck Patent GmbH, priority 2012, dated 2018)
*1 amine or outer side, *2 acyl side, *3 side chain or, on linkers, in order; H or OH if unused. Where a SMILES comes first, the peptide text is derived from it. [ ]: non-standard residue; d: D form. The star is where a group is joined. Ahppa(3S,4S) = O=C(C[C@H](O)[C@H](Cc1ccccc1)N[*:1])[*:2]; Sta = CC(C)C[C@H](N)[C@@H](O)CC(=O)O; Isovaleryl = CC(C)CC(=O)*

Legend:
[1] = test system: bovine explants (cartilage degradation, liberation of GAG); conditions: pH 5.5, explant cultures (for example from mouse, cow or human); background statement; cited from earlier work
[2] = test system: rat knee joint inflammation (CAR-induced); assay: Anti-hyperalgesic effect in animals: carrageenan-induced knee joint inflammation, Hargreaves test and swelling; type: in vivo; conditions: intra-articular administration 30 minutes before CAR; for CAR-induced swelling: rat knee joint
Procedure: EXAMPLE 6: INVESTIGATION OF THE ANTI-HYPERALGESIC EFFECT IN ANIMALS
In order to induce an inflammation reaction, a carrageenan solution […]) was injected intra-articularly on one side into a rat knee joint. The uninjected side was used for control purposes. Six animals per group were used. The […] was determined by means of a micrometer screw (medial-lateral on the knee joint), and the thermal hyperalgesia was determined by means of a directed infrared light source by the Hargreaves method (Hargreaves et al., 1988) on the sole of the foot. Since the site of inflammation (knee joint) is different from the site of measurement (paw sole), use is made here of the term secondary thermal hyperalgesia, the mechanism of which is of importance for the discovery of effective analgesics.
Experimental description of thermal hyperalgesia (Hargreaves test): the experimental animal is placed in a plastic chamber on a quartz sheet. Before testing, the experimental animal is firstly given about 5-15 minutes time to familiarise itself with the environment. As soon as the experimental animal no longer moves so frequently after the familiarisation phase (end of the exploration phase), the infrared light source, whose focus is in the plane of the glass bottom, is positioned directly beneath the rear paw to be stimulated. An experiment run is then started by pressing the button: infrared light results in an increase in the skin temperature of the rear paw. The experiment is terminated either by the experimental animal raising the rear paw (as an expression of the pain threshold being reached) or by automatic switching-off of the infrared light source when a prespecified maximum temperature has been reached. Light reflected by the paw is recorded as long as the experimental animal sits still. Withdrawal of the paw interrupts this reflection, after which the infrared light source is switched off and the time from switching on to switching off is recorded. […]

[3] = target: T1, cathepsin D isolated from the human liver (Homo sapiens, UniProt P07339); assay: In-vitro fluorescence assay for identification of cathepsin D inhibitors; type: biochemical; conditions: human liver cathepsin D 1.4 nM, pH 5.5; read-out: CatD assay IC50-(M)
T1 construct: cathepsin D isolated from the human liver (Sigma-Aldrich); purchased Sigma-Aldrich; host or cells: human liver (tissue-derived, not recombinant)
T1 sequence (P07339 65-161 limits assumed): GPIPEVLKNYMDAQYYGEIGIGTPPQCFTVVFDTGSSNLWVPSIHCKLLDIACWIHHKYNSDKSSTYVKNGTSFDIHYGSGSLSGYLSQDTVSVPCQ
T1 sequence (P07339 169-412 limits assumed): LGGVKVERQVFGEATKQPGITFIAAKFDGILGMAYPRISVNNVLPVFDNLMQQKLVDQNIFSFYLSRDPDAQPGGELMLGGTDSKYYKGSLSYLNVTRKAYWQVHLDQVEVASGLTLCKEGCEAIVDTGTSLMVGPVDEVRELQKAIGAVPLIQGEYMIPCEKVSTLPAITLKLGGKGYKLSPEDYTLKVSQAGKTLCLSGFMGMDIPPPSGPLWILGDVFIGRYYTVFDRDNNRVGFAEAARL
Method in brief: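 Continuous FRET assay: human liver cathepsin D (1.4 nM final) preincubated 10 min at room temperature with serially diluted compound in 100 mM sodium acetate, 1.25% DMSO, 0.25% Chaps, pH 5.5. Started with 5 μM MCA-GKPILFFRLK(Dnp)d-R-NH2; fluorescence increase (ex 340/em 450 nm) over 60 min at room temperature compared with no-compound control.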

[4] = test system: bovine explants (cartilage degradation, liberation of GAG); assay: Cartilage explant assay: pH-induced cartilage degradation, GAG release; type: cell-based; conditions: Bos taurus, 72 h, pH 5.5, 3 days
From the text: EXAMPLE 5: CARTILAGE EXPLANT ASSAY
In order to investigate the effect of potential cathepsin D inhibitors on cartilage degradation, a pH-induced model based on bovine explants is used. The pH of the medium in which the explants are cultivated is matched here to the pathophysiological pH of an arthrotic knee. This pH is pH 5.5. In this ex vivo model, potential cathepsin D inhibitors are subsequently investigated for their action with respect to stopping of the cartilage degradation process. If the cartilage is destroyed, glycosaminoglycans (GAGs) are released into the cell culture supernatant. The amount of GAGs liberated can be determined quantitatively with the aid of DMMB (dimethylmethylene blue hydrochloride). If sulfated GAGs are detected using dimethylmethylene blue hydrochloride, the decrease in the absorption at 633 nm is utilised. […] In order to determine the concentration, a calibration line is also recorded using chondroitin sulfate.
1.) Procedure: pH-Induced Cartilage Degradation of Bovine Explants
The bovine explants are firstly prepared. The induction of the cartilage degradation is carried out in 96-multiwell plates. One explant is cultivated per well. In each case, 200 μl of DMEM (incubation medium pH 5.5) without FBS+30 μg/ml of ascorbic acid are added. Thus negative control, explants (n=4) are incubated at pH 7.4 (without FBS). This control is not included in the calculation of the data, but instead ensures that the pH change has the desired effect on the liberation of GAG. At this point, the substances to be tested are added. No pre-incubation of the explants is carried out. The explants are cultivated with the corresponding substances for 3 days in the incubator at 37° C. and 7.5% CO2.
In order to investigate the effect of cathepsin D inhibitors on the liberation of GAG (glycosaminoglycan), the substances are employed in the desired concentration and cultivated for 3 days. The compounds to be tested are tested in a first experiment in a concentration of 1 μM and 1% of DMSO. Substances which have an effect of >50% on the liberation of GAG (this corresponds to <50% of the control in the Assay Explorer) are tested in the next experiment at 100 nM and 1% of DMSO. Substances which have an effect of >50% on the liberation of GAG under these conditions (this corresponds to <50% of the control in the Assay Explorer) are tested in a concentration/effect relationship. The compounds here are investigated in the following concentrations: 30 μM, 10 μM, 3 μM, 1 μM, 0.3 μM, 0.1 μM, 0.03 μM, 0.01 μM.
The positive control used is pepstatin A with a concentration of 0.01 μM. The assay window is defined by the control (pH 5.5), defined as 0% effect, and the control pH 5.5+0.01 μM pepstatin A, defined as 100% effect. After incubation for 3 days, the cell culture supernatants are collected and stored at −20° C. or measured directly. The amount of liberated GAG is measured photometrically.
The effect (1 value) of the respective substance in % based on the positive control (pH 5.5+0.01 μM pepstatin A) and the negative control (pH 5.5) is reported for concentrations of 1 μM and 100 nM. The value represents the average of 4 replicants. In the determination of a concentration/effect relationship, an IC50 value is reported to the database (Assay Explorer).
The cell culture supernatants (200 μl) are either measured directly or stored at −20° C. […] A rapid colour reaction occurs, which is subsequently measured at 633 nm using a plate reader (for example Envision). […]

**Q.** For CC(C)c1nc(CN(C)C(=O)N[C@H](C(=O)N[C@@H](Cc2ccccc2)C[C@H](O)[C@H](Cc2ccccc2)NC(=O)OCc2cncs2)C(C)C)cs1 [ritonavir], which “inhibition of autodigestion of the cartilage” value [1] is on record?
**A.** Its value is “inhibited virtually completely”.

**Q.** What does the source list for CC[C@H](C)[C@H](NC(=O)C[C@H](O)[C@H](Cc1ccccc1)NC(=O)[C@@H](NC(=O)c1cccc(-c2ccccc2)c1)C(C)C)C(=O)N[C@H](C(=O)OCc1ccccc1)C(C)C [Compound 23, benzly (S)-2-[(2S,3S)-2-((3S,4S)-4-{(S)-2-[(biphenyl-3-carbonyl)-amino]-3-methylbutyrylamino}-3-hydroxy-5-phenylpentanoylamino)-3-methylpentanoylamino]-3-methylbutyrate]?
**A.** CAR-induced swelling [2]: exhibited no influence on inflammatory swelling; thermal hyperalgesia (anti-hyperalgesic action) ([2]; rat, Hargreaves method): exerts an anti-hyperalgesic action; IC50 [3]: 1.2e-05 M

**Q.** For CC[C@H](C)[C@H](NC(=O)C[C@H](O)[C@H](Cc1ccccc1)NC(=O)[C@@H](NC(=O)[C@H](CC(C)C)NC(=O)CC(C)C)C(C)C)C(=O)N[C@H](C(=O)O)C(C)C [Compound 8, (S)-2-[(2S,3S)-2-((3S,4S)-3-hydroxy-4-{(S)-3-methyl-2-[(S)-4-methyl-2-(3-methylbutyrylamino)pentanoylamino]butyrylamino}-5-phenylpentanoylamino)-3-methylpentanoylamino]-3-methylbutyric acid] (Isovaleryl-LV[Ahppa(3S,4S)]IV-OH), which IC50 [4] is on record?
**A.** Its IC50 is 2.76 nM.

**Q.** What about the IC50 [3] of the same molecule?
**A.** Its IC50 is 3e-09 M.

**Q.** What does the source list for CC[C@H](C)[C@H](NC(=O)C[C@H](O)[C@H](Cc1ccccc1)NC(=O)[C@H](NC(=O)[C@H](CC(C)C)NC(=O)CC(C)C)C(C)C)C(=O)N[C@H](C(=O)O)C(C)C [Compound 9, (S)-2-[(2S,3S)-2-((3S,4S)-3-hydroxy-4-{(R)-3-methyl-2-[(S)-4-methyl-2-(3-methylbutyrylamino)pentanoylamino]butyrylamino}-5-phenylpentanoylamino)-3-methylpentanoylamino]-3-methylbutyric acid] (Isovaleryl-L[dV][Ahppa(3S,4S)]IV-OH)?
**A.** IC50 [4]: 31.2 nM; IC50 [3]: 7.51e-08 M

**Q.** For CC(C)CC(=O)N[C@H](C(=O)N[C@H](C(=O)N[C@@H](CC(C)C)[C@@H](O)CC(=O)N[C@@H](C)C(=O)N[C@@H](CC(C)C)[C@@H](O)CC(=O)O)C(C)C)C(C)C [pepstatin] (Isovaleryl-VV[Sta]A[Sta]-OH), which “inhibition of autodigestion of the cartilage” value [1] is on record?
**A.** The value was “inhibited virtually completely”.

**Q.** Which CAR-induced swelling [2] does the source give for C[C@]12C=CC(=O)C=C1CC[C@H]1[C@@H]3C[C@@H](O)[C@](O)(C(=O)CO)[C@@]3(C)C[C@H](O)[C@@]12F [TAC, Triamcinolone, reference compound] here?
**A.** Its CAR-induced swelling is “capable of reducing the CAR-induced swelling”.
